From ChEMBL document CHEMBL1135193, “N-[2-(Indan-1-yl)-3-mercapto-propionyl] amino acids as highly potent inhibitors of the three vasopeptidases (NEP, ACE, ECE): In vitro and In vivo activities” (Bioorg Med Chem Lett, 2002)

How the values were obtained:
[1] = target: T1, Endothelin-converting enzyme 1 (Homo sapiens, UniProt P42892); test: In vitro inhibition of endothelin converting enzyme.
T1 sequence (P42892 whole entry): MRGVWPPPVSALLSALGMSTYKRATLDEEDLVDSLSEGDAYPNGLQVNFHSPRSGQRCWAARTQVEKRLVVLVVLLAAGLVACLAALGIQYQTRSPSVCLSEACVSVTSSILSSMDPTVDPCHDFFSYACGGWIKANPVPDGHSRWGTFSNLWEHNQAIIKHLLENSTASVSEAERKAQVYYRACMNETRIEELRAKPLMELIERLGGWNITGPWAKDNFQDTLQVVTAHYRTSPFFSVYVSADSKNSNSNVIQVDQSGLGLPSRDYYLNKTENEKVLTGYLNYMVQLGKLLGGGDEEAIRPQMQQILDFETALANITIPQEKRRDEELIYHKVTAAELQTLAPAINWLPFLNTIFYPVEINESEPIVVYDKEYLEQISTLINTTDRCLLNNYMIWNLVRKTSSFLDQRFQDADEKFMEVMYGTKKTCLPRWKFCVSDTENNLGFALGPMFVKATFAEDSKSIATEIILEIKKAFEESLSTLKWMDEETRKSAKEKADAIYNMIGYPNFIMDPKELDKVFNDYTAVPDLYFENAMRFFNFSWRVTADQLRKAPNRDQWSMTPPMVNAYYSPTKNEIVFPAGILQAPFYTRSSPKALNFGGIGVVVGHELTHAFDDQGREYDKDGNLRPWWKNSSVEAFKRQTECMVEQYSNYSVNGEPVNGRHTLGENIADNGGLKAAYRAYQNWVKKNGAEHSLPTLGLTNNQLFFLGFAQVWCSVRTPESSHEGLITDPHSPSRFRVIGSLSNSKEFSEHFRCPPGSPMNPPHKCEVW

[2] = target: T2, Angiotensin-converting enzyme (Rattus norvegicus, UniProt P47820); test: In vitro inhibition of Angiotensin I converting enzyme.
T2 sequence (P47820 whole entry): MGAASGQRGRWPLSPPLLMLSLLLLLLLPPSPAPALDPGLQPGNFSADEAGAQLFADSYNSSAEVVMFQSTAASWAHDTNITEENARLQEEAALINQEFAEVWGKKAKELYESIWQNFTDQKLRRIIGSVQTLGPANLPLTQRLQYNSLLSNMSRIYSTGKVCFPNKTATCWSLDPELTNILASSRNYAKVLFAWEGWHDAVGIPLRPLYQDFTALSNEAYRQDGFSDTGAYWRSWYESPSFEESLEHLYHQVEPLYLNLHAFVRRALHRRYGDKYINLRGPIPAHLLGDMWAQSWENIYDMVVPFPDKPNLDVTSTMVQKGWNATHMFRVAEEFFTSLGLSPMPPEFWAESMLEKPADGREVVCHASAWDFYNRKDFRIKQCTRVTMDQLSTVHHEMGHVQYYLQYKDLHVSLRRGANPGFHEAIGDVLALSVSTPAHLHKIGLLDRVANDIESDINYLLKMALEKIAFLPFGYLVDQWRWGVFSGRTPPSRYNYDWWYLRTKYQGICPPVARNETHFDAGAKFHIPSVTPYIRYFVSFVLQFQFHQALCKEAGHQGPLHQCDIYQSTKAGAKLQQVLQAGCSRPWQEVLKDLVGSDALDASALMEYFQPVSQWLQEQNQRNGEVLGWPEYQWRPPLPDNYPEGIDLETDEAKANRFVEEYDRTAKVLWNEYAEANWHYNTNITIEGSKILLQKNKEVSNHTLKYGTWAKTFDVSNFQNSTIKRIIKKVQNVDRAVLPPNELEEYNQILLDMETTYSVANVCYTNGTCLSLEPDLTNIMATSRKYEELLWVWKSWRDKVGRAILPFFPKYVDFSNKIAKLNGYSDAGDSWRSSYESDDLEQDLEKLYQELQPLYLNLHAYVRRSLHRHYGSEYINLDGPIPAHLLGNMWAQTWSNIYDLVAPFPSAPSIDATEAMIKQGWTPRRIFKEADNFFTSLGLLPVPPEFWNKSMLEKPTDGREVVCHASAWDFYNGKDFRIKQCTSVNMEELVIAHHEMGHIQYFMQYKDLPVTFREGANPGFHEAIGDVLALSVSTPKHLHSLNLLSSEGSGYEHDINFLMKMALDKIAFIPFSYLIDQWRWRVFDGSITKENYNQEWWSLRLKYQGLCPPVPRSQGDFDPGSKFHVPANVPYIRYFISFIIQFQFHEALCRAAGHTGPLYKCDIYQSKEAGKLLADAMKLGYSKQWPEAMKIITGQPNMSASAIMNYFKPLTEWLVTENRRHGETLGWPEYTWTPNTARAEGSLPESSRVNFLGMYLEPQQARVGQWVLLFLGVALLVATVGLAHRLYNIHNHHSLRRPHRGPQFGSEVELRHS

Neprilysin = target: T3, Neprilysin (Oryctolagus cuniculus, UniProt P08049); test: In vitro inhibition of Neutral endopeptidase.
T3 sequence (P08049 whole entry): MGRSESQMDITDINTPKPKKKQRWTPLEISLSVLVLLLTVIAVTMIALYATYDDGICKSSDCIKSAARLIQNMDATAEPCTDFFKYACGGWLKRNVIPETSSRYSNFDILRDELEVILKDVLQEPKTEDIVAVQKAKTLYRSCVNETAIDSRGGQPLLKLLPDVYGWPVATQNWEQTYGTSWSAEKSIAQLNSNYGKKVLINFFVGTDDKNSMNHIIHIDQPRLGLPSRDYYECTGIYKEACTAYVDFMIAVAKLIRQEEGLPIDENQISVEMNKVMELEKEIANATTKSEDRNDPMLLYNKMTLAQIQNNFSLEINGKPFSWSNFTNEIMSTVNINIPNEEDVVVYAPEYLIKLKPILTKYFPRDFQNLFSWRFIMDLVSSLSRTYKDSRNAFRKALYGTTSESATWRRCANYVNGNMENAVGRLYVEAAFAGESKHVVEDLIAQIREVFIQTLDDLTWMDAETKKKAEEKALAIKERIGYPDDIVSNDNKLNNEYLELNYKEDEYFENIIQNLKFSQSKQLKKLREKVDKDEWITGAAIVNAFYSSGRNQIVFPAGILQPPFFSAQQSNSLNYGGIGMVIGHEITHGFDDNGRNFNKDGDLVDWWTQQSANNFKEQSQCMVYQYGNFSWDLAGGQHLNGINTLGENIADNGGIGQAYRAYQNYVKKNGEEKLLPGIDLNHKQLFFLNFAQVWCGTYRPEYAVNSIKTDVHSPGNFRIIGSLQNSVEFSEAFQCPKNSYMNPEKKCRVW

[3] = target: T4, Neprilysin (Mus musculus) (UniProt Q61391); test: In vivo inhibition of lung Neutral endopeptidase in mice was determined by blockage of enzyme at 25 mg/kg iv of compound; type: organism-based; set-up: dose 25 mg/kg
T4 sequence (whole entry): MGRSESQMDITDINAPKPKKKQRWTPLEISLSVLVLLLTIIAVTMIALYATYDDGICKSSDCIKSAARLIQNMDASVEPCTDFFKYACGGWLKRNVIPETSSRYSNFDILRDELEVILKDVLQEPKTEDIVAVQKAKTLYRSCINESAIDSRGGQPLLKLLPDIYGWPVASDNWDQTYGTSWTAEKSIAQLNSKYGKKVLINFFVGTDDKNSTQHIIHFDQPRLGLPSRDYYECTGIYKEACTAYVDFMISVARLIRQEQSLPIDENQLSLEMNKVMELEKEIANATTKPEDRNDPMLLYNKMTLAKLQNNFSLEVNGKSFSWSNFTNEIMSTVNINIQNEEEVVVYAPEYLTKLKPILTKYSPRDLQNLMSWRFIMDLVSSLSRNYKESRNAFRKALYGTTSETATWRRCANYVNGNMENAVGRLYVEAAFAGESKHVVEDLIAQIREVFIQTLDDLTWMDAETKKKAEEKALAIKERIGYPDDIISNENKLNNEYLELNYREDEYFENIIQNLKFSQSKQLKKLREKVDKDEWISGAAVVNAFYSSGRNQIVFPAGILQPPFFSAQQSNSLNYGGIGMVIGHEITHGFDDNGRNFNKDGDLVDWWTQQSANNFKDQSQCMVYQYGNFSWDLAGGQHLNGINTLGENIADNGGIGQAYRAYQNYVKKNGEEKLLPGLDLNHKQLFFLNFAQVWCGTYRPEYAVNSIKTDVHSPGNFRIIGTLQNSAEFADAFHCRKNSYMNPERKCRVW

Rattus norvegicus [4] = test: Decrease of mean arterial pressure (MAP) on iv administration of sodium salt at 30 mg/kg at 5 or 15 min prior to the big ET-1 challenge in wistar rats; type: functional, Artery
Rattus norvegicus [5] = test: Increase in mean arterial pressure (MAP) in anesthetized male wistar rats on iv injection of 1 nmol/kg big ET-1; type: functional, Artery
Rattus norvegicus [6] = test: Increase in MAP on intravenous injection of AI in vehicle at 1 nmol/kg iv in male wistar rats; type: functional

N#Cc1ccc2c(c1)CCC2C(CS)C(=O)NC(Cc1c[nH]c2ccccc12)C(=O)O (stereo unspecified) showed a Ki [1] of 0.21 µM, a Ki [2] of 0.003 µM and a Ki (Neprilysin) of 0.011 µM.
Work on O=C(O)[C@H](Cc1c[nH]c2ccccc12)NC(=O)[C@H](CS)[C@H]1CCc2cc(Br)ccc21 yielded a Ki [1] of 0.018 µM, a Ki [2] of 0.055 µM and a Ki (Neprilysin) of 0.0018 µM.
In the case of O=C(O)[C@H](Cc1c[nH]c2ccccc12)NC(=O)[C@@H](CS)[C@H]1CCc2cc(Br)ccc21, the Ki [1] is reported as 0.028 µM, the inhibition [3] is reported as 70% and the MAP (Rattus norvegicus [4]) is reported as -15.2 mmHg. It also gave an MAP (Rattus norvegicus [5]) of 57.2 mmHg, a Ki [2] of 0.0041 µM and an MAP (Rattus norvegicus [6]) of 15 mmHg. For the same molecule, the Ki (Neprilysin) was 0.0038 µM.
Work on COc1ccc2c(c1)CC[C@@H]2[C@H](CS)C(=O)N[C@@H](Cc1c[nH]c2ccccc12)C(=O)O yielded a Ki [1] of 0.1 µM, a Ki [2] of 0.0046 µM and a Ki (Neprilysin) of 0.0027 µM.
CCOc1ccc2c(c1)CCC2C(CS)C(=O)NC(Cc1c[nH]c2ccccc12)C(=O)O (stereo unspecified) was tested, and the Ki [1] was 0.047 µM, the Ki [2] was 0.018 µM and the Ki (Neprilysin) was 0.008 µM.
Molecule O=C(O)C(Cc1c[nH]c2ccccc12)NC(=O)C(CS)C1CCc2cc(O)ccc21 (stereo unspecified) has a Ki [1] of 0.09 µM, a Ki [2] of 0.007 µM and a Ki (Neprilysin) of 0.004 µM.
CSc1ccc2c(c1)CCC2C(CS)C(=O)NC(Cc1c[nH]c2ccccc12)C(=O)O (stereo unspecified) was tested, and the Ki [1] was 0.035 µM, the Ki [2] was 0.014 µM and the Ki (Neprilysin) was 0.006 µM.
With O=C(O)C(Cc1c[nH]c2ccccc12)NC(=O)C(CS)C1CCc2cc(Br)ccc21 (stereo unspecified) the Ki [1] was 0.031 µM, the Ki [2] was 0.012 µM and the Ki (Neprilysin) was 0.005 µM.
With O=C(O)[C@H](Cc1c[nH]c2ccccc12)NC(=O)[C@H](CS)[C@@H]1CCc2cc(Br)ccc21 the Ki [1] was 0.09 µM, the Ki [2] was 0.066 µM and the Ki (Neprilysin) was 0.013 µM.
O=C(O)C(Cc1c[nH]c2ccccc12)NC(=O)C(CS)C1CCc2cc(-c3ccccc3)ccc21 (stereo unspecified) showed a Ki [1] of 0.14 µM, a Ki [2] of 0.027 µM and a Ki (Neprilysin) of 0.014 µM.
COc1ccc2c(c1)C(C(CS)C(=O)NC(Cc1c[nH]c3ccccc13)C(=O)O)CC2 (stereo unspecified) was tested, and the Ki [1] was 0.079 µM, the Ki [2] was 0.035 µM and the Ki (Neprilysin) was 0.011 µM.
COc1ccc2c(c1)CC[C@@H]2[C@@H](CS)C(=O)N[C@@H](Cc1c[nH]c2ccccc12)C(=O)O gave a Ki [1] of 0.01 µM, a Ki [2] of 0.024 µM and a Ki (Neprilysin) of 0.0013 µM.
In the case of CN(C)c1ccc2c(c1)CCC2C(CS)C(=O)NC(Cc1c[nH]c2ccccc12)C(=O)O (stereo unspecified), the Ki [1] is reported as 0.37 µM, the Ki [2] is reported as 0.044 µM and the Ki (Neprilysin) is reported as 0.015 µM.
With COc1ccc2c(c1)CCC2C(CS)C(=O)NC(Cc1c[nH]c2ccccc12)C(=O)O (stereo unspecified) the Ki [1] was 0.022 µM, the Ki [2] was 0.011 µM and the Ki (Neprilysin) was 0.005 µM.
Work on COc1cc2c(cc1OC)C(C(CS)C(=O)NC(Cc1c[nH]c3ccccc13)C(=O)O)CC2 (stereo unspecified) yielded a Ki [1] of 0.56 µM, a Ki [2] of 0.078 µM and a Ki (Neprilysin) of 0.078 µM.
Molecule COc1ccc2c(c1)CC[C@H]2[C@H](CS)C(=O)N[C@@H](Cc1c[nH]c2ccccc12)C(=O)O has a Ki [1] of 1.46 µM, a Ki [2] of 0.07 µM and a Ki (Neprilysin) of 0.03 µM.
In the case of COc1ccc2c(c1)CC[C@H]2[C@@H](CS)C(=O)N[C@@H](Cc1c[nH]c2ccccc12)C(=O)O, the Ki [1] is reported as 0.18 µM, the Ki [2] is reported as 0.03 µM and the Ki (Neprilysin) is reported as 0.015 µM.
Work on O=C(O)[C@H](Cc1c[nH]c2ccccc12)NC(=O)[C@@H](CS)[C@@H]1CCc2cc(Br)ccc21 yielded a Ki [1] of 0.11 µM, a Ki [2] of 0.058 µM and a Ki (Neprilysin) of 0.0094 µM.
Work on COc1cccc2c1CCC2C(CS)C(=O)NC(Cc1c[nH]c2ccccc12)C(=O)O (stereo unspecified) yielded a Ki [1] of 0.76 µM, a Ki [2] of 0.008 µM and a Ki (Neprilysin) of 0.016 µM.
